Several values for one entry are separate records, joined by “and”; a condition that tells them apart may be missing. Equal entries are not always repeated. Where a SMILES comes first, the peptide text is derived from it. [ ]: non-standard residue; d: D form. Hyp = O=C(O)[C@@H]1C[C@@H](O)CN1
Tested on: human PBMCs
Experiment: PBMC cell counts (total, live, viability; trypan blue, Countess) with and without LPS and test articles (Example 9)
Assay type: cell-based
Description: Treatment Human PBMCs were pretreated with YY-101, YDE-011 and YDE-043 or reference compound; Xiidra® at various concentration (ranging from 1 nM to 100 uM) for 2 h before stimulation. An equal volume of 0.5% DMSO was used as a vehicle control. Then, the cells were treated with LPS at 5 ug/ml. The supernatants from treated cells were harvested at 24 h and placed in a 96 well for Luminex cytokine & chemokine profiling using a Luminex 200 multiplex assay (Luminex; R&D system, USA).
The main study arm with triplicate wells per group in a 24-well plate: • 1. Blank • 2. PBMC: 0.5% DMSO • 3. PBMC+LPS (5 ug/ml) • 4. PBMC+YY-101 100 uM • 5. PBMC+YY-101 10 uM • 6. PBMC+YY-101 1 uM • 7. PBMC+YY-101 0.1 uM • 8. PBMC+YY-101 0.01 uM • 9. PBMC+LPS (5 ug/ml)+Xiidra®100 uM • 10. PBMC+LPS (5 ug/ml)+Xiidra® 10 uM • 11. PBMC+LPS (5 ug/ml)+Xiidra® 1 uM • 12. PBMC+LPS (5 ug/ml)+Xiidra®0.1 uM • 13. PBMC+LPS (5 ug/ml)+Xiidra®0.01 uM • 14. PBMC+LPS (5 ug/ml)+Xiidra®0.001 uM • 15. PBMC+LPS (5 ug/ml)+YY-101 100 uM • 16. PBMC+LPS (5 ug/ml)+YY-101 10 uM • 17. PBMC+LPS (5 ug/ml)+YY-101 1 uM • 18. PBMC+LPS (5 ug/ml)+YY-101 0.1 uM • 19. PBMC+LPS (5 ug/ml)+YY-101 0.01 uM • 20. PBMC+LPS (5 ug/ml)+YY-101 0.001 uM • 21. PBMC+LPS (5 ug/ml)+YDE-011 100 uM • 22. PBMC+LPS (5 ug/ml)+YDE-011 10 uM • 23. PBMC+LPS (5 ug/ml)+YDE-011 1 uM • 24. PBMC+LPS (5 ug/ml)+YDE-011 0.1 uM • 25. PBMC+LPS (5 ug/ml)+YDE-011 0.01 uM • 26. PBMC+LPS (5 ug/ml)+YDE-011 0.001 uM • 27. PBMC+LPS (5 ug/ml)+YDE-043 100 uM • 28. PBMC+LPS (5 ug/ml)+YDE-043 10 uM • 29. PBMC+LPS (5 ug/ml)+YDE-043 1 uM • 30. PBMC+LPS (5 ug/ml)+YDE-043 0.1 uM • 31. PBMC+LPS (5 ug/ml)+YDE-043 0.01 uM • 32. PBMC+LPS (5 ug/ml)+YDE-043 0.001 uM
The number of PBMCs was measured after 24 hr of treatment. The culture both and trypan blue were diluted 1:1 and 10 ul was added to Countess cell counting chamber (Thermo fisher, USA). The number of PBMCs was measured using a Countess automated cell counter (Thermo fisher, USA).

[1] = PBMC + LPS(5 ug/ml) + compound 0.001 uM, 24 hr
[2] = PBMC + LPS(5 ug/ml) + compound 0.01 uM, 24 hr
[3] = PBMC + LPS(5 ug/ml) + compound 0.1 uM, 24 hr
[4] = PBMC + LPS(5 ug/ml) + compound 1 uM, 24 hr
[5] = PBMC + LPS(5 ug/ml) + compound 10 uM, 24 hr
[6] = PBMC + LPS(5 ug/ml) + compound 100 uM, 24 hr
[7] = PBMC + LPS(5 ug/ml) + test article 0.001 uM, Mean
[8] = PBMC + LPS(5 ug/ml) + test article 0.001 uM, single replicates
[9] = PBMC + LPS(5 ug/ml) + test article 0.01 uM, Mean
[10] = PBMC + LPS(5 ug/ml) + test article 0.01 uM, single replicates
[11] = PBMC + LPS(5 ug/ml) + test article 0.1 uM, Mean
[12] = PBMC + LPS(5 ug/ml) + test article 0.1 uM, single replicates
[13] = PBMC + LPS(5 ug/ml) + test article 1 uM, Mean
[14] = PBMC + LPS(5 ug/ml) + test article 1 uM, single replicates
[15] = PBMC + LPS(5 ug/ml) + test article 10 uM, Mean
[16] = PBMC + LPS(5 ug/ml) + test article 10 uM, single replicates

SMILES: CC(C)C[C@H](NC(=O)[C@H](CCC(N)=O)NC(=O)CNC(=O)[C@@H]1C[C@@H](O)CN1)C(=O)NCC(=O)O [YDE-043] (H-[Hyp]GQLG-OH; N-terminus and C-terminus assumed)
- Live cell [1]: 5.0 ± 0.5 10^5/ml
- Total cell [1]: 6.3 ± 0.7 10^5/ml
- Live cell [2]: 5.4 ± 0.6 10^5/ml
- Total cell [2]: 6.9 ± 0.4 10^5/ml
- Live cell [3]: 5.4 ± 0.2 10^5/ml
- Total cell [3]: 6.6 ± 0.1 10^5/ml
- Live cell [4]: 5.3 ± 0.3 10^5/ml
- Total cell [4]: 6.8 ± 0.6 10^5/ml
- Live cell [5]: 5.4 ± 0.1 10^5/ml
- Total cell [5]: 6.4 ± 0.1 10^5/ml
- Live cell [6]: 6.3 ± 0.1 10^5/ml
- Total cell [6]: 7.6 ± 0.6 10^5/ml
- Live cell [7]: 5.0 10^5/ml
- Live cell (10^5/ml) [7]: 5.0 10^5/ml
- Live cell, Mean [7]: 5.0 10^5/ml
- Live cell (PBMC + LPS(5 ug/ml) + test article 0.001 uM, individual replicates): 4.4 10^5/ml and 6.0 10^5/ml and 4.6 10^5/ml
- Live cell (PBMC + LPS(5 ug/ml) + test article 0.001 uM, individual replicates (1st, 2nd, 3rd)): 4.4 10^5/ml and 6.0 10^5/ml and 4.6 10^5/ml
- Live cell [8]: 4.4 10^5/ml and 6.0 10^5/ml and 4.6 10^5/ml
- Live cell (10^5/ml) [8]: 4.4 10^5/ml and 6.0 10^5/ml and 4.6 10^5/ml
- Live cell (PBMC + LPS(5 ug/ml) + test article 0.001 uM, single replicates (1st, 2nd, 3rd)): 4.4 10^5/ml and 6.0 10^5/ml and 4.6 10^5/ml
- Live cell [9]: 5.4 10^5/ml
- Live cell (10^5/ml) [9]: 5.4 10^5/ml
- Live cell, Mean [9]: 5.4 10^5/ml
- Live cell (PBMC + LPS(5 ug/ml) + test article 0.01 uM, individual replicates): 4.5 10^5/ml and 6.6 10^5/ml and 5.0 10^5/ml
- Live cell (PBMC + LPS(5 ug/ml) + test article 0.01 uM, individual replicates (1st, 2nd, 3rd)): 4.5 10^5/ml and 6.6 10^5/ml and 5.0 10^5/ml
- Live cell [10]: 4.5 10^5/ml and 6.6 10^5/ml and 5.0 10^5/ml
- Live cell (10^5/ml) [10]: 4.5 10^5/ml and 6.6 10^5/ml and 5.0 10^5/ml
- Live cell (PBMC + LPS(5 ug/ml) + test article 0.01 uM, single replicates (1st, 2nd, 3rd)): 4.5 10^5/ml and 6.6 10^5/ml and 5.0 10^5/ml
- Live cell [11]: 5.4 10^5/ml
- Live cell (10^5/ml) [11]: 5.4 10^5/ml
- Live cell, Mean [11]: 5.4 10^5/ml
- Live cell (PBMC + LPS(5 ug/ml) + test article 0.1 uM, individual replicates): 5.0 10^5/ml and 5.6 10^5/ml (2×)
- Live cell (PBMC + LPS(5 ug/ml) + test article 0.1 uM, individual replicates (1st, 2nd, 3rd)): 5.0 10^5/ml and 5.6 10^5/ml (2×)
- Live cell [12]: 5.0 10^5/ml and 5.6 10^5/ml (2×)
- Live cell (10^5/ml) [12]: 5.0 10^5/ml and 5.6 10^5/ml (2×)
- Live cell (PBMC + LPS(5 ug/ml) + test article 0.1 uM, single replicates (1st, 2nd, 3rd)): 5.0 10^5/ml and 5.6 10^5/ml (2×)
- Live cell [13]: 5.3 10^5/ml
- Live cell (10^5/ml) [13]: 5.3 10^5/ml
- Live cell, Mean [13]: 5.3 10^5/ml
- Live cell (PBMC + LPS(5 ug/ml) + test article 1 uM, individual replicates): 5.8 10^5/ml and 4.8 10^5/ml and 5.3 10^5/ml
- Live cell (PBMC + LPS(5 ug/ml) + test article 1 uM, individual replicates (1st, 2nd, 3rd)): 5.8 10^5/ml and 4.8 10^5/ml and 5.3 10^5/ml
- Live cell [14]: 5.8 10^5/ml and 4.8 10^5/ml and 5.3 10^5/ml
- Live cell (10^5/ml) [14]: 5.8 10^5/ml and 4.8 10^5/ml and 5.3 10^5/ml
- Live cell (PBMC + LPS(5 ug/ml) + test article 1 uM, single replicates (1st, 2nd, 3rd)): 5.8 10^5/ml and 4.8 10^5/ml and 5.3 10^5/ml
- Live cell [15]: 5.4 10^5/ml
- Live cell (10^5/ml) [15]: 5.4 10^5/ml
- Live cell, Mean [15]: 5.4 10^5/ml
- Live cell (PBMC + LPS(5 ug/ml) + test article 10 uM, individual replicates): 5.2 10^5/ml and 5.4 10^5/ml and 5.6 10^5/ml
- Live cell (PBMC + LPS(5 ug/ml) + test article 10 uM, individual replicates (1st, 2nd, 3rd)): 5.2 10^5/ml and 5.4 10^5/ml and 5.6 10^5/ml
- Live cell [16]: 5.2 10^5/ml and 5.4 10^5/ml and 5.6 10^5/ml
- Live cell (10^5/ml) [16]: 5.2 10^5/ml and 5.4 10^5/ml and 5.6 10^5/ml
